Measurements taken from patent US4820694A, “Modifications of 3-O-demethylmycinose in macrocin and lactenocin” (priority 1986, dated 1989).
In brackets after ≈: the same amount, converted by molar mass. Like-named read-outs stand apart in the source and are kept apart here.

How the values were obtained:
[1] = system: Streptococcus pneumoniae Park I; assay: microbe, parasite or virus in culture; type: cell-based; settings: Streptococcus pneumoniae
Method: (§1) The MIC's in Table III were determined by standard agar-dilution assays. The MIC's in Table IV were obtained using conventional brothdilution microtiter tests.

[2] = system: Staphylococcus aureus S13E; assay: microbe, parasite or virus in culture; type: cell-based; settings: Staphylococcus aureus, S13E
Method: as §1

[3] = system: Staphylococcus aureus 19C; assay: broth-dilution microtiter MIC test; type: cell-based; settings: Staphylococcus aureus, 19C
Method: as §1

[4] = system: Pasteurella hemolytica 23C; assay: broth-dilution microtiter MIC test; type: cell-based; settings: Pasteurella, 23C
Method: as §1

[5] = system: Pasteurella multocida 60A; assay: broth-dilution microtiter MIC test; type: cell-based; settings: Pasteurella multocida, 60A
Method: as §1

[6] = system: Pasteurella multocida 17E; assay: broth-dilution microtiter MIC test; type: cell-based; settings: Pasteurella multocida, 17E
Method: as §1

[7] = system: Mycoplasma gallisepticum 15E; assay: broth-dilution microtiter MIC test; type: cell-based; settings: Mycoplasmoides gallisepticum, 15E
Method: as §1

Mycoplasma synoviae 40A = assay: broth-dilution microtiter MIC test; type: cell-based; settings: Mycoplasmopsis synoviae, 40A
Method: as §1

[8] = system: Pasteurella multocida 40G; assay: broth-dilution microtiter MIC test; type: cell-based; settings: Pasteurella multocida, 40G
Method: as §1

[9] = system: Mycoplasma gallisepticum 29C; assay: broth-dilution microtiter MIC test; type: cell-based; settings: Mycoplasmoides gallisepticum, 29C
Method: as §1

[10] = system: Pasteurella multocida 22A; assay: broth-dilution microtiter MIC test; type: cell-based; settings: Pasteurella multocida, 22A
Method: as §1

[11] = system: Pasteurella hemolytica 41D; assay: broth-dilution microtiter MIC test; type: cell-based; settings: Pasteurella, 41D
Method: as §1

[12] = system: Mycoplasma hyopneumoniae S5972; assay: broth-dilution microtiter MIC test; type: cell-based; settings: Mesomycoplasma hyopneumoniae, S5972
Method: as §1

[13] = system: Mycoplasma gallisepticum 36H; assay: broth-dilution microtiter MIC test; type: cell-based; settings: Mycoplasmoides gallisepticum, 36H
Method: as §1

[14] = system: Bordetella bronchiseptica; assay: broth-dilution microtiter MIC test; type: cell-based; settings: Bordetella bronchiseptica; broth-dilution microtiter; read-out: MIC
Method: as §1

Streptococcus sp. 19F = assay: broth-dilution microtiter MIC test; type: cell-based; settings: Streptococcus, SP.19F
Method: as §1

[15] = system: Pasteurella hemolytica 22C; assay: broth-dilution microtiter MIC test; type: cell-based; settings: Pasteurella, 22C
Method: as §1

Mycoplasma hyorhinis 29E = assay: broth-dilution microtiter MIC test; type: cell-based; settings: Mycoplasma, 29E
Method: as §1

[16] = system: Pasteurella multocida 68C; assay: broth-dilution microtiter MIC test; type: cell-based; settings: Pasteurella multocida, 68C
Method: as §1

[17] = system: Streptococcus pyogenes C203; assay: protection of mice experimentally infected with S. pyogenes C203; type: in vivo; settings: mice, mg/kg × 2, doses given 1 and 4 hours postinfection, read-out: ED50
Summary of the method: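 Activity is given as ED50, the mg/kg dose (×2) protecting half of the mice infected with S. pyogenes C203. Compound was dosed 1 and 4 h after infection.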

[18] = system: Streptococcus pyogenes C203; assay: standard agar-dilution MIC assay; type: cell-based; settings: Streptococcus pyogenes, C203
Method: as §1

[19] = system: Streptococcus Group D X66; assay: standard agar-dilution MIC assay; type: cell-based; settings: read-out: MIC
Method: as §1

[20] = system: Staphylococcus aureus X1.1; assay: standard agar-dilution MIC assay; type: cell-based; settings: Staphylococcus aureus, X1.1
Method: as §1

[21] = system: Staphylococcus aureus X400; assay: standard agar-dilution MIC assay; type: cell-based; settings: Staphylococcus aureus, X400
Method: as §1

[22] = system: Staphylococcus aureus V41; assay: standard agar-dilution MIC assay; type: cell-based; settings: Staphylococcus aureus, V41
Method: as §1

[23] = system: Staphylococcus epidermidis EPI1; assay: standard agar-dilution MIC assay; type: cell-based; settings: Staphylococcus epidermidis, EPI1
Method: as §1

[24] = system: Staphylococcus epidermidis 222; assay: standard agar-dilution MIC assay; type: cell-based; settings: Staphylococcus epidermidis, 222
Method: as §1

[25] = system: Haemophilus influenzae C.L.; assay: standard agar-dilution MIC assay; type: cell-based; settings: Haemophilus influenzae
Method: as §1

[26] = system: Klebsiella pneumoniae X68; assay: standard agar-dilution MIC assay; type: cell-based; settings: Klebsiella pneumoniae, X68; agar-dilution; read-out: MIC
Method: as §1

[27] = system: Haemophilus influenzae 76; assay: standard agar-dilution MIC assay; type: cell-based; settings: Haemophilus influenzae, 76
Method: as §1

[28] = system: Pseudomonas aeruginosa X239; assay: standard agar-dilution MIC assay; type: cell-based; settings: Pseudomonas aeruginosa, X239; agar-dilution; read-out: MIC
Method: as §1

Escherichia coli EC14 = assay: standard agar-dilution MIC assay; type: cell-based; settings: agar-dilution, read-out: MIC
Method: as §1

[29] = system: Streptococcus Group D 2041; assay: standard agar-dilution MIC assay; type: cell-based; settings: GROUPD2041
Method: as §1

CCC1OC(=O)CC(O)C(C)C(OC2OC(C)C(O)C(N(C)C)C2O)C(CCOc2ccccc2)CC(C)C(=O)C=CC(C)=CC1COC1OC(C)C2OC(=O)OC2C1OC (stereo not shown) [Compound 53, 20-DH-20-O-Phenyl-lactenocin 3",4"-Carbonate]
MIC [1]: 2 µg/mL (≈ 2.32 µM)
MIC [2]: 1 µg/mL (≈ 1.16 µM)
MIC [3]: 0.78 µg/mL (≈ 0.905 µM)
MIC [4]: 50 µg/mL (≈ 58 µM)
MIC [5]: 25 µg/mL (≈ 29 µM)
MIC [6]: 25 µg/mL (≈ 29 µM)
MIC [7]: 50 µg/mL (≈ 58 µM)
MIC (Mycoplasma synoviae 40A): 1.56 µg/mL (≈ 1.81 µM)
MIC [8]: 50 µg/mL (≈ 58 µM)
MIC [9]: 0.195 µg/mL (≈ 0.226 µM)
MIC [10]: 50 µg/mL (≈ 58 µM)
MIC [11]: 50 µg/mL (≈ 58 µM)
MIC [12]: 3.12 µg/mL (≈ 3.62 µM)
MIC [13]: 50 µg/mL (≈ 58 µM)
MIC [14]: > 50 µg/mL
MIC (Streptococcus sp. 19F): 3.12 µg/mL (≈ 3.62 µM)
MIC [15]: 50 µg/mL (≈ 58 µM)
MIC (Mycoplasma hyorhinis 29E): 25 µg/mL (≈ 29 µM)
MIC [16]: 25 µg/mL (≈ 29 µM)
ED50 ([17]; C203, Oral): 18.7 mg/kg
ED50 ([17]; C203, sc, Subcutaneous): 6.1 mg/kg
MIC [18]: 0.5 µg/mL (≈ 0.58 µM)
MIC [19]: 8 µg/mL (≈ 9.28 µM)
MIC [20]: 1 µg/mL (≈ 1.16 µM)
MIC [21]: 1 µg/mL (≈ 1.16 µM)
MIC [22]: 1 µg/mL (≈ 1.16 µM)
MIC [23]: 1 µg/mL (≈ 1.16 µM)
MIC [24]: 0.5 µg/mL (≈ 0.58 µM)
MIC [25]: 64 µg/mL (≈ 74.2 µM)
MIC [26]: > 128 µg/mL
MIC [27]: 32 µg/mL (≈ 37.1 µM)
MIC [28]: > 128 µg/mL
MIC (Escherichia coli EC14): > 128 µg/mL
MIC [29]: 8 µg/mL (≈ 9.28 µM)
